According to ChEMBL document CHEMBL3507680, “University of Dundee, Gates Library screen for HepG2 cell viability”:

experiment: Human HepG2 cell viability assay in 384 well format; type: toxicity, cell-based; parameters: dose 125 nL, time 70.5 hour; cytotoxicity at 70.5 h: concentration not given beside the values; details: HepG2 cells, read-out: Inhibition

Row | Compound | cytotoxicity at 70.5 h [%]
1 | CCCc1nnsc1C(=O)NCC(O)c1ccoc1 (configuration not stated) | -11.2
2 | CC(=O)c1ccc(C(=O)N2C[C@@H](CN3CCCC3)[C@@H](CO)C2)cc1 | 12.4
3 | CO[C@H]1CN(C(=O)c2ccc(-c3ccccc3)[nH]2)CC[C@H]1N | -10.1
4 | CC(C)n1c(C2CCCN(CC(=O)NC(N)=O)C2)nc2ccccc21 (configuration not stated) | -1.95
5 | CCCOc1cc(C)ccc1NC(=O)NCCNC(=O)C(C)C | 25.7
6 | Cc1ccc(C(=O)N2C[C@@H]3OCCN(C(C)C)[C@@H]3C2)cn1 | -11.3
7 | O=S(=O)(C1CC1)N1CCO[C@@H]2CC(COCc3cccnc3)C[C@H]21 (some centres not stated) | -2.81
8 | COc1cccc(C(C(=O)O)N2CCCN(C3CCCC3)CC2)c1OC (configuration not stated) | 20.1
9 | CC(C)OCCn1nnnc1Cc1ccc(Br)cc1 | -5.01
10 | Cc1occc1C(=O)Nc1cc(N2CCNC2=O)ccc1Cl | 6.66
11 | O[C@@H]1CN(Cc2ccc(F)c(F)c2)CC[C@H]1NCc1ccccn1 | 22.5
12 | Cc1nsc(N2CCN(C(=O)Nc3ccc4[nH]ccc4c3)CC2)n1 | 1.81
13 | CN1CCN(C(=O)c2cc[nH]c(=O)c2)Cc2ccccc21 | 1.93
14 | c1cnnc(N[C@@H]2CC[C@@H]3CN(Cc4ccc5cc[nH]c5c4)C[C@@H]32)c1 | -9.52
15 | Cc1nn(C)c(N(C)C)c1CNCc1cccc(OCCN(C)C)c1 | 27.3
16 | COCCN(Cc1ccc(F)cc1C#N)CC(F)(F)F | -10.5
17 | CCOc1ccc(N(CCC#N)C(=O)c2ccc(SC)nc2)cc1 | -4
18 | Cc1ccc(NCc2cccc3cn[nH]c23)cc1OC1CCOC1 (configuration not stated) | -0.654
19 | O=C(NCc1ccc(Cl)cc1)[C@@H]1Cc2[nH]cnc2CN1CC1CC1 | -6.64
20 | Cn1cc(Br)c(=O)c(NS(=O)(=O)c2ccc3c(c2)CCC3)c1 | 2.07
21 | COCC1CC2(CCN(C(C)=O)CC2)CN1Cc1csc(C)n1 (configuration not stated) | -4.16
22 | COc1ncccc1CN1CCC2(CC1)CN(c1ccccn1)CCO2 | -6.12
23 | Cc1nnc(NCc2cccc(OCC3CCCO3)c2)c(C#N)c1C (configuration not stated) | 29

Row | Compound | cytotoxicity at 70.5 h [%]
24 | CN(C)C(=O)n1c(C(=O)NC(C)(C)CO)cc2c1c1ccccc1n2C | -6.99
25 | O=C(c1ccsc1)N1CCc2c(COCc3ccncc3)cncc2C1 | -9.93
26 | CCC(=O)N1CCN(C(=O)Nc2cccc(F)c2)[C@H]2CS(=O)(=O)C[C@H]21 | -2.91
27 | CCN1CCNC(=O)C12CCN(C(=O)c1ccccn1)CC2 | 18.3
28 | COc1ccc(CN2CCCC2)cc1Oc1ccc(NC(C)=O)cc1 | -3.35
29 | Cn1cc(CN2CCc3onc(C(=O)Nc4cccnc4)c3C2)cn1 | -3.27
30 | Cc1ccccc1-n1cc(-c2ccnc(N3CCCC(CN)C3)n2)cn1 (configuration not stated) | -7.47
31 | CCc1nc(CCNc2ncccn2)sc1C | -7.68
32 | NCC1Cc2cc(F)cc(-c3cnccn3)c2O1 (configuration not stated) | -3.38
33 | COc1cc(C(=O)N2CCCC(c3cc(C)[nH]n3)C2)ccc1C (configuration not stated) | 19.1
34 | Cc1cnc(C(=O)N2CCc3c(nc(-c4ccncc4)[nH]c3=O)C2)cn1 | -3.01
35 | Cc1ccccc1OCC1CCCN(C(=O)CNC(=O)N(C)C)C1 (configuration not stated) | 16.8
36 | CCCN1CCCN(CCCOc2cccc(C#N)c2)CC1 | -1.9
37 | CN1CCN(c2ncnc3c2CCN(c2ncc(F)cn2)CC3)CC1 | -1.02
38 | Cn1cc(CC2CC(=O)N(Cc3ccc(OC(F)F)cc3)C2=O)cn1 (configuration not stated) | 3.06
39 | CC(C)(Oc1ccc2c(c1)CCCC2=O)C(=O)NCc1ccco1 | -2.8
40 | CC(C)c1nc(CS(=O)(=O)Cc2noc(C3CC3)n2)cs1 | -13.6
41 | CN(C)CCN(Cc1ccc(Cl)cc1)C(=O)c1cnccn1 | 3.24
42 | CS(=O)(=O)NCCC(=O)N1CCC(Cc2ccc(CO)cc2)C1 (configuration not stated) | 1.14
43 | Cc1csc(NCC(=O)c2c[nH]c3ccccc23)n1 | 3.37
44 | COc1ccc(S(=O)(=O)N2Cc3c(CN(C)C)nn(C)c3C2)cc1 | -3.13
45 | O=C(CCc1ccc(F)c(F)c1)N1CCCCC1Cn1cccn1 (configuration not stated) | -7.69
46 | COc1ccc(COCC(O)CNC(=O)c2cnc(C)cn2)cc1 (configuration not stated) | -8.25

Row | Compound | cytotoxicity at 70.5 h [%]
47 | COc1ccc(F)cc1C(=O)Nc1nnc(C)s1 | 6.71
48 | N#Cc1cccc(Cl)c1NCCCc1nc(=O)[nH][nH]1 | -9.76
49 | Cc1nnc(C2Cc3ccccc3CN2Cc2nc(C(C)C)no2)o1 (configuration not stated) | 1.77
50 | Cc1ccc(N2C[C@H]3OCC[C@H]3[C@H](C(=O)NC3CCCC3)C2)nn1 | -12.6
51 | COCCCn1c(CN2CCSCC2)cnc1S(=O)(=O)C1CCCC1 | -2.29
52 | COc1ccc(N2CCC(NC(=O)c3ccc(C#N)cc3)CC2)cc1 | -4.31
53 | Cc1ncsc1CN1C[C@@H]2CCCO[C@@H]2[C@H](N(C)C(C)C)C1 | -4.74
54 | FC(F)(F)C1CN(c2nc(-c3ccccc3)no2)CCO1 (configuration not stated) | -14.1
55 | CC(=O)N1CCN(CCNS(=O)(=O)c2c(F)cccc2F)CC1 | -5.97
56 | CN(C)C(=O)[C@H]1C[C@@H]2CCN(C3CCOCC3)C[C@@H]2O1 | -2.42
57 | Cc1noc(C)c1CN1C[C@H]2CNC[C@H]2C1 | -2.52
58 | CCc1nnc(CN(C)CC2CCCCC2)o1 | -0.472
59 | COc1ncccc1CN1C[C@@H]2C[C@@H](C(=O)NCC3CC3)N(C)[C@@H]2C1 | -12.2
60 | O=C(NCC1CC1)C1CCC2(CCN(C(=O)c3cccs3)CC2)O1 (configuration not stated) | -15.2
61 | Cc1nc2ccccc2c(=O)n1CCC(=O)N1CCCCCC1 | 1.78
62 | CN(CC(=O)N1CCc2[nH]c3ccccc3c2C1)CC1OCCO1 | 24
63 | O=C(NCc1nncn1C1CC1)C1(c2cccc(F)c2)CCOCC1 | -9.71
64 | O=C(Cc1ccccc1)NCc1ncc(-c2ccccc2C(=O)O)cn1 | -4.73
65 | CC(C)S(=O)(=O)NCC1CCCN(C(=O)c2ccc(Cl)cc2)C1 (configuration not stated) | 6.86
66 | CCc1cnc(CN2CCC(N(Cc3noc(CC)n3)C(C)=O)C2)o1 (configuration not stated) | -9.22
67 | C[C@@]1(O)CCN(Cc2cc[nH]n2)C[C@H]1Oc1cccc(F)c1 | -2.59
68 | COCc1ncc(-c2nccn2CCn2cnnc2)cn1 | -2.42
69 | OC(COc1ccccc1)CN1CCC(c2ccn[nH]2)CC1 (configuration not stated) | -13.1

Row | Compound | cytotoxicity at 70.5 h [%]
70 | COc1ccc(C(O)CNC(=O)Cn2ccc(=O)n(C)c2=O)cc1 (configuration not stated) | -5.99
71 | CN(C)C(CNS(=O)(=O)c1cnn(C)c1)c1cccc(F)c1 (configuration not stated) | -1.66
72 | COCCN(CC(C)C)C(=O)c1cccc(Nc2cnccn2)c1 | -13.9
73 | CCCc1nc(CN2CCN(CC(O)c3ccccc3)CC2)no1 (configuration not stated) | -0.214
74 | CCc1nnc(CNC(=O)c2cc3c(nc2OC)CCC3)s1 | 2.77
75 | COCCCN1CCN(c2ncnc3nc(C)cc(C)c23)CC1 | -4.17
76 | O=C(CCCNC(=O)Nc1ccc(F)cc1)Nc1cn[nH]c1 | -7.73
77 | Cn1cccc1C(=O)NC[C@]12COC[C@H]1CN(Cc1nccs1)C2 | -15.1
78 | O=C(Nc1ccc(Br)cc1F)c1ccc(N2CCCCC2)nn1 | -3.25
79 | CC[C@H](C)[C@H](N)C(=O)Nc1nc(-c2cnc(N(C)C)nc2)cs1 | -0.629
80 | NC(=O)c1sc2ccccc2c1C1CCN(S(=O)(=O)N2CCOCC2)C1 (configuration not stated) | 1.58
81 | O=C(c1ccco1)N1CCO[C@@H]2CN(c3ccccc3)CC[C@@H]2C1 | 29.2
82 | N#CC1COCCN1S(=O)(=O)c1ccc(F)c(Br)c1 (configuration not stated) | -9.56
83 | Cc1ccc(S(=O)(=O)N2CCC3(CC(C(=O)NCC4CC4)=NO3)C2)cc1 (configuration not stated) | -8.09
84 | Cc1cc(C(=O)NCC2(C(N)=O)CCOCC2)nn1C(C)(C)C | -6.96
85 | Cc1cnn(CC2CN(c3cnc4ccccc4n3)CCO2)c1 (configuration not stated) | 48.4
86 | CN(C)CCN(Cc1ccc(Cl)cc1)C(=O)c1cc[nH]n1 | -3.35
87 | COc1cccc2c1OCC(C(=O)N1CCN(S(C)(=O)=O)CC1)C2 (configuration not stated) | 20.3
88 | COc1cccc(F)c1C(C)NC(=O)NCCc1ccc(C)nc1 (configuration not stated) | 29.6
89 | CCc1nnsc1C(=O)NC(CC(C)C)C(=O)OC (configuration not stated) | -7.11
90 | COCCCNc1nccc(-c2c[nH][nH]c2=O)n1 | 22.8
91 | O=C(Cc1ccsc1)N1CCN(CC2CC2)c2ncccc2C1 | -14
92 | COC(=O)C(NC(=O)C1CC1)c1cc(F)ccc1F (configuration not stated) | -0.233

Row | Compound | cytotoxicity at 70.5 h [%]
93 | CNS(=O)(=O)c1ccccc1N1CCN(C(C)C(=O)OC)CC1 (configuration not stated) | -3.28
94 | Cc1ccc(N2CCN(C(=O)CCC(F)(F)F)C(C)C2)cc1 (configuration not stated) | -18.6
95 | COCCOCC(=O)NCc1ccc(N(C)C)nc1 | -5.23
96 | CCN(Cc1csc(CS(C)(=O)=O)n1)c1cccc(F)c1 | -7.29
97 | CCc1nc(C(=O)N2CCN(C)CC2C)nn1-c1ccccc1Cl (configuration not stated) | 23.5
98 | COCCN1CCN(C(=O)C(c2cccc(F)c2)N(C)C)CC1 (configuration not stated) | 1.27
99 | Nc1cc(-c2cccc3c2CCNC3)ncn1 | -6.17
100 | CCn1cnnc1C1CCN(C(=O)c2ccc(C(=O)OC)s2)CC1 | -10.6
101 | CCC[C@H]1CN(CCS(C)(=O)=O)C[C@@H]1NC(=O)Cn1cc(C)cn1 | -6.99
102 | NC(=O)c1cccc2nc([C@H]3CCN(Cc4ccccc4F)C3)[nH]c12 | -3.45
103 | CSc1ccc(-c2nc(CN3CCC(NC(C)=O)CC3)c(C)o2)cc1 | -7.12
104 | CC(CNC(=O)NCc1ccco1)CC1(C)OCCO1 (configuration not stated) | 15.5
105 | CN(Cc1cccnc1)CC1CN(C(N)=O)Cc2nccn2C1 (configuration not stated) | -2.38
106 | CC(NC(=O)C1=NN(C)C(=O)CC1)c1ccccc1Cl (configuration not stated) | -96.4
107 | CC(C)C(C)(CNC(=O)OC(C)(C)C)NC(=O)c1cnccn1 (configuration not stated) | 2.42
108 | Cc1cc(C)c(S(N)(=O)=O)cc1C(=O)NCCN1CCC(C)CC1 | -12.9
109 | CC(NCc1cccnc1)c1ccc(OCC(=O)NC2CC2)cc1 (configuration not stated) | -8.83
110 | CC1CCN(c2cncc(CCC3CCCN3)n2)CC1 (configuration not stated) | -8.58
111 | CO[C@@H]1CN(c2ccccc2)S(=O)(=O)[C@@]12CCN(C(=O)N(C)C)C2 | -5.12
112 | CN1CCOC(CN(C(=O)CCCn2cccn2)c2nccs2)C1 (configuration not stated) | -1.25
